Data on 1 compound can be found in US20050214279A1, “Methods for stimulating human leukocytes to kill bacteria, yeast and fungi in biofilms that have formed in/on prosthetic devices, catheters, tissues and organs in vivo” (priority 2003, published 2005).

For this test, the system named is human neutrophils. The test can be described thus: Neutrophil phagocytosis and killing of S. epidermidis in fibrin gels. It is filed as cell-based. The note with it: bacteria 10^5 to 2×10^8 CFU/ml, neutrophils 10^6 to 4×10^8/ml (data not shown). Here is the method: To facilitate processing for microscopy we used 50% autologous plasma to form gels (40 μl in volume). To increase the frequency of neutrophils and S. epidermidis interactions the gels contained 4μ 10^8 neutrophils/ml (pre-incubated in medium with or without 20 μM cytochalasin D for 15 min at room temperature), 2μ 10^8 CFU/ml S. epidermidis, and 20 μM cytochalasin D, where indicated. The gels were incubated for 60 min at 37° C., fixed with 2.5% glutaraldehyde at 4° C., and then with 1% OsO4, stained en block with 1% uranyl acetate, dehydrated, and embedded in Epon. Sections ˜[…] thick were cut, stained sequentially with lead citrate and uranyl acetate, and examined in a Phillips 1200 transmission electron microscope. […]
In stirred suspensions, neutrophils must phagocytose bacteria to kill them. […] Second, cytochalasin D, which facilitates neutrophil secretions, blocked both phagocytosis (as measured by electron microscopy), and killing of S. epidermidis in fibrin gels at all bacterial (10^5 to 2×10^8 CFU/ml) and neutrophil concentrations (10^6 to 4×10^8/ml) tested (data not shown). […]

Molecules are shown by their SMILES.

Regarding `C=C1[C@@H](C)[C@H]2[C@H](Cc3ccccc3)NC(=O)[C@]23[C@H](OC(C)=O)/C=C/[C@@](C)(O)C(=O)[C@@H](C)C/C=C/[C@H]3[C@@H]1O` [cytochalasin D], the “killing of S. epidermidis in fibrin gels” value is on record as “blocked” and the “phagocytosis (as measured by electron microscopy)” value is “blocked”.
